Experimental data reported in US20050209198A1, “Pharmaceutical composition comprising a bisphosphonate and a cox-2 inhibitor for the treatment of bone diseases” (priority 2002, published 2005).

What was measured:
[1] = test system: patients with postmenopausal osteoporosis; experiment: Pain scores and general well being in the same trial, oral COX-2 inhibitor vs oral placebo; assay type: in vivo; conditions: 400 mg per day p.o. vs oral placebo, on zoledronic acid or placebo background
Procedure: (§1) A dose and dose regimen-finding 24 months trial of iv zoledronic acid in patients with postmenopausal osteoporosis is carried out. Three hundred and fifty one patients are randomized to six study arms. […] All patients are evaluated at baseline and in 3-monthly visits. Zoledronic acid or placebo was administered as a bolus iv injection into a peripheral vein over 5 minutes at every visit. Patients from both zoledronic acid treated and placebo groups also receive an oral COX-2 inhibitor (5-methyl-2-(2′-chloro-6′-fluoroanilino)phenylacetic acid—400 mg per day p.o.) or oral placebo.
(§2) Efficacy is ascertained by measurement of percent change from baseline in bone mineral density (BMD) measured by dual energy X-ray absorptiometry (DEXA) as compared to placebo, at 6, 9, and 12 months. Patients also maintain records of pain scores on a once weekly basis and are monitored for pain scores at the 3-monthly visits.

[2] = test system: patients with postmenopausal osteoporosis; experiment: 24 months trial of iv zoledronic acid, bone mineral density (BMD) by DEXA; assay type: in vivo; conditions: bolus iv, dose administration as infrequent as every 6 or 12 months, compared to placebo
Procedure: as §1, §2
• Placebo • 0.25 mg zoledronic acid every 3 months • 0.5 mg zoledronic acid every 3 months • 1.0 mg zoledronic acid every 3 months • 2.0 mg zoledronic acid every 6 months • 4.0 mg zoledronic acid every 12 months each with 50% COX-2 treatment and 50% oral placebo.

| Compound | pain scores and general well being of patients [1] | bone mineral density (BMD), bone mass change [2] |
| --- | --- | --- |
| Cc1ccc(Nc2c(F)cccc2Cl)c(CC(=O)O)c1 [COX-2, 5-methyl-2-(2′-chloro-6′-fluoroanilino)phenylacetic acid] | show improvement over the oral placebo treated groups | – |
| O=P(O)(O)C(O)(Cn1ccnc1)P(=O)(O)O [zoledronic acid, 1-hydroxy-2-(imidazol-1-yl)ethane-1,1-diphosphonic acid] | – | statistically significant and medically relevant bone mass increase |
